The experiment has as its system smooth muscle cells obtained from the aortas of rats. Nature of the experiment: Inhibition of the proliferation of smooth muscle cells (3H-thymidine incorporation). Format: cell-based. The conditions noted are these: semi-maximum inhibition of the thymidine incorporation produced by 10% FCS; rat aortic smooth muscle cells. As for the experimental part: Investigation of the inhibition of the proliferation of smooth muscle cells by the compounds according to the invention
To determine the antiproliferative action of the compounds, smooth muscle cells are used which are obtained from the aortas of rats by the media explant technique [R. Ross, J. Cell, Biol. 50, 172, 1971]. The cells are inoculated into suitable culture dishes, as a rule 96-hole plates, and cultured at 37° C. in 5% CO2 for 2-3 days in medium 199 containing, 7.5% FCS and 7.5% NCS, 2mM L-glutamine and 15 mM HEPES, pH 7.4. The cells are then synchronized for 2-3 days by withdrawal of serum and then stimulated into growth using […] or other factors. Test compounds are simultaneously added. After 16-20 hours, 1 μCi ^3 H-thymidine is added and after a further 4 hours the incorporation of this substance into the TCA-precipitable DNA of the cells is determined. To determine the IC50 values, the active compound concentration is calculated which, on sequential dilution of the active compound, causes semi-maximum inhibition of the thymidine incorporation produced by 10% FCS.
For the compound `Cc1cc(C)c2c3c(n(Cc4ccc(C5CCCCC5C(=O)N[C@H](CO)c5ccccc5)cc4)c2n1)CCCC3` (single isomer, unassigned) [Example 27], the IC50 turned out to be 580 nM.

Take `O=C(N[C@H](CO)c1ccccc1)C1CCCCC1c1ccc(Cn2c3ccccc3c3ccncc32)cc1` (single isomer, unassigned) [Example 30]: half-maximal inhibition (IC50) was put at 0.1 nM. Compared with the last compound, the IC50 is about 5800-fold lower.

In turn, `O=C(N[C@H](CO)c1ccccc1)C1CCCCC1c1ccc(Cn2c3c(c4cccnc42)CCCCC3)cc1` (single isomer, unassigned) [Example 50] yielded an IC50 of 0.9 nM.

As for `O=C(N[C@H](CO)c1ccccc1)C1CCCCC1c1ccc(Cn2c3ccccc3c3cccnc32)cc1` (single isomer, unassigned) [Example 32], the IC50 amounted to 2 nM. This IC50 lies about 2.2-fold higher than the previous one.

As a reminder, the IC50 is the concentration that inhibits the measured activity by half.

The values above are taken from patent US5834481A, “Heterotricyclically substituted phenyl-cyclohexane-carboxylic acid derivatives” (Bayer Aktiengesellschaft, priority 1993, dated 1998).
